Measured values published in article PMC4368451 (Cancer chemotherapy and pharmacology, 2015).

What was measured:
[1] = test system: A549 non-small cell lung carcinoma xenograft; assay: A549 xenograft model; assay type: in vivo, Female athymic NCr-nu/nu nude mice; conditions: for tumor growth: 5 mg/kg i.p. every other day for thirteen days; for TGI % (tumor growth inhibition): 5 mg/kg i.p. every other day for 13 days, day 23, relative to control
A549 tumor = assay type: in vivo, Female athymic NCr-nu/nu nude mice; conditions: 5 mg/kg i.p. on four consecutive days
[2] = Prodrug processing in plasma or whole blood; assay type: in vitro ADME
[3] = test system: SW620 (colorectal adenocarcinoma) cells; assay: Cell cycle distribution; assay type: cell-based; conditions: SW620, 24 hours

Compound | tumor growth [1] | acetylated H3 and H4 in tumor lysates (western blot) relative to control (A549 tumor) | prodrug level after room temperature incubation in plasma or whole blood [2] | cell cycle dose dependence [3] | concentration for G2 arrest [3] [nM] | TGI % (tumor growth inhibition) [1] [%] | TGI % (tumor growth inhibition) ([1]; listed as Larg.) [%]
Largazole thiol | tumor growth rate was slower |  |  |  |  |  | 
CCCCCCCC(=O)SCC/C=C/[C@@H]1CC(=O)NCc2nc(cs2)C2=N[C@@](C)(CS2)C(=O)N[C@@H](C(C)C)C(=O)O1 [Largazole] | tumor growth rate was slower | increased acetylation relative to control | < LLOQ after ten minutes | clear switch from G1 to G2 arrest with increasing concentration | > 50 | 32 | 32
